Results taken from the kinase profiling compilation of Christmann-Franck et al. (2016).

What was measured:
Assay in all cases: KINOMEscan competition binding
Details in all cases: compound 10.0 µM
[1] = target: CDK16 (human) (UniProt Q00536)
[2] = target: RPS6KA2 KD2 (human) (UniProt Q15349)
[3] = target: WEE2 (human) (UniProt P0C1S8)
[4] = target: RIPK2 (human) (UniProt O43353)
[5] = target: MTOR (human) (UniProt P42345)
[6] = target: STK11 (human) (UniProt Q15831)
[7] = target: CDK11B (human) (UniProt P21127)
[8] = target: PRKACB (human) (UniProt P22694)
[9] = target: MAP2K5 (human) (UniProt Q13163)
[10] = target: CSNK1G3 (human) (UniProt Q9Y6M4)
Sequence of CSNK1G3 (human) (Q9Y6M4 whole entry, looked up): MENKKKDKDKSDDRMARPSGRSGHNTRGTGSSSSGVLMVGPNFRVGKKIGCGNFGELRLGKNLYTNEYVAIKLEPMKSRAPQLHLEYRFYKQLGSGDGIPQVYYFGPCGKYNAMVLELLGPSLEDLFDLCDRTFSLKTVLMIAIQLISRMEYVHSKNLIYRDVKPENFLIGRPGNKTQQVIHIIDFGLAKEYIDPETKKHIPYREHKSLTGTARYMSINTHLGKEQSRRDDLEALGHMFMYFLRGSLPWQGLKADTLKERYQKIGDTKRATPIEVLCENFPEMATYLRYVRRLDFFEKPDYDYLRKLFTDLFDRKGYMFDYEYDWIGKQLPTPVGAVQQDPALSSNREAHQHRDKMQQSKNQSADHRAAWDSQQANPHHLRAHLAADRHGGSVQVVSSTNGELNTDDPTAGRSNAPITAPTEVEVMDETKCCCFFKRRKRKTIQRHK

[11] = target: TYK2 JH1 catalytic (human) (UniProt P29597)
[12] = target: AKT3 (human) (UniProt Q9Y243)
[13] = target: LYN (human) (UniProt P07948)
[14] = target: MET (human) (UniProt P08581)
[15] = target: PIP4K2B (human) (UniProt P78356)
[16] = target: CAMKK2 (human) (UniProt Q96RR4)
Sequence of CAMKK2 (human) (Q96RR4 whole entry, looked up): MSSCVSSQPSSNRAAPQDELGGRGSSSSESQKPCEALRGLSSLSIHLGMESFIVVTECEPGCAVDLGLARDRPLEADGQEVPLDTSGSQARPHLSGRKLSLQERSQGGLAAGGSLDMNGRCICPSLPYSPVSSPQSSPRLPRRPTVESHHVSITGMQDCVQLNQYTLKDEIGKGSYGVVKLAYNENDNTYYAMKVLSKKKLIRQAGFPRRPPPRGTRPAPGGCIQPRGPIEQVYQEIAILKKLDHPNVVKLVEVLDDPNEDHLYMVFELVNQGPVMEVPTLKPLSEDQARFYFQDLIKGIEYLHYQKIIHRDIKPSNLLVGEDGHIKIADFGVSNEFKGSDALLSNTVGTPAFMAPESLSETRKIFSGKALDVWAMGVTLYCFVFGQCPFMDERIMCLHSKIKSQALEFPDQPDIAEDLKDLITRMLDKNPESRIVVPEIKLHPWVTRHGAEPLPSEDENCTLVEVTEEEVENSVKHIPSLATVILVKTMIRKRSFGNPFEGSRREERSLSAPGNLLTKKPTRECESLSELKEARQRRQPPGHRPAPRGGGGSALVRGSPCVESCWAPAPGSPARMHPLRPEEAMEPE

[17] = target: ACVR1 (human) (UniProt Q04771)
[18] = target: ICK (human) (UniProt Q9UPZ9)
[19] = target: RIOK2 (human) (UniProt Q9BVS4)
[20] = target: RPS6KA4 KD1 (human) (UniProt O75676)
[21] = target: PAK3 (human) (UniProt O75914)
[22] = target: ROS1 (human) (UniProt P08922)
[23] = target: CHUK (human) (UniProt O15111)
[24] = target: CDC42BPG (human) (UniProt Q6DT37)
[25] = target: IRAK1 (human) (UniProt P51617)
Sequence of IRAK1 (human) (P51617 whole entry, looked up): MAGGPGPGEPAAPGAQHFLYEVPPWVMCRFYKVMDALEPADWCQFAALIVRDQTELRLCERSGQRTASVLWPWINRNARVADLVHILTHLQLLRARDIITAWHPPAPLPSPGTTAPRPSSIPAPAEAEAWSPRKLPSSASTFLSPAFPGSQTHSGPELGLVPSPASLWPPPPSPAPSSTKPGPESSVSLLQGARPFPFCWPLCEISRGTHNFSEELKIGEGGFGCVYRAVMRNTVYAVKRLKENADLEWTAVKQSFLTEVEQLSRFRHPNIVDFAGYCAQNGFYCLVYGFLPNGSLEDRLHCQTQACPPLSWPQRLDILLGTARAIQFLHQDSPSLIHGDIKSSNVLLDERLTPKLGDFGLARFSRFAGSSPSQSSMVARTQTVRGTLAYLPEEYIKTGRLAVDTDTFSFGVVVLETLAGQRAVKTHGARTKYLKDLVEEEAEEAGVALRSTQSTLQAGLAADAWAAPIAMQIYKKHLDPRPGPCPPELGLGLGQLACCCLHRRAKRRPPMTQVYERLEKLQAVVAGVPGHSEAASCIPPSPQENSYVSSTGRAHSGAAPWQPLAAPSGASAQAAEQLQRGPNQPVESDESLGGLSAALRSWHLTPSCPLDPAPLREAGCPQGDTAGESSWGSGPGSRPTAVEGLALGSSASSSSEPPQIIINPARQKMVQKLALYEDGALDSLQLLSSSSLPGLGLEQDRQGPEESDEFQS

[26] = tested on: EGFR (human), P00533 [752-759 del]
[27] = target: CSK (human) (UniProt P41240)
[28] = target: PHKG2 (human) (UniProt P15735)
Sequence of PHKG2 (human) (P15735 whole entry, looked up): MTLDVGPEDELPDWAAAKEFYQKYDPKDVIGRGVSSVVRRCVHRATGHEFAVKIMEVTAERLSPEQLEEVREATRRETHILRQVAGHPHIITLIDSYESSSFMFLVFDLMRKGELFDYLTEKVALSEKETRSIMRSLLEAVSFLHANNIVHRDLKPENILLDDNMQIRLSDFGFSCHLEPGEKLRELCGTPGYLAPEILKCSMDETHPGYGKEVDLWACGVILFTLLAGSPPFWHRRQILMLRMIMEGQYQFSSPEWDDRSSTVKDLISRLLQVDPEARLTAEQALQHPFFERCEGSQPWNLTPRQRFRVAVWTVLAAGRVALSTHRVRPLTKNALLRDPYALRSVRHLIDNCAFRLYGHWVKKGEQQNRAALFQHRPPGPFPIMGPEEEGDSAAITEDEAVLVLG

[29] = target: PAK7 (human) (UniProt Q9P286)
[30] = target: NLK (human) (UniProt Q9UBE8)
[31] = target: TNIK (human) (UniProt Q9UKE5)
[32] = target: RPS6KA3 KD1 (human) (UniProt P51812)
[33] = target: PRKCH (human) (UniProt P24723)
[34] = target: PLK4 (human) (UniProt O00444)
[35] = target: EGFR (human) (UniProt P00533)
[36] = target: RPS6KA5 KD1 (human) (UniProt O75582)
Sequence of RPS6KA5 KD1 (human) (O75582 whole entry, looked up): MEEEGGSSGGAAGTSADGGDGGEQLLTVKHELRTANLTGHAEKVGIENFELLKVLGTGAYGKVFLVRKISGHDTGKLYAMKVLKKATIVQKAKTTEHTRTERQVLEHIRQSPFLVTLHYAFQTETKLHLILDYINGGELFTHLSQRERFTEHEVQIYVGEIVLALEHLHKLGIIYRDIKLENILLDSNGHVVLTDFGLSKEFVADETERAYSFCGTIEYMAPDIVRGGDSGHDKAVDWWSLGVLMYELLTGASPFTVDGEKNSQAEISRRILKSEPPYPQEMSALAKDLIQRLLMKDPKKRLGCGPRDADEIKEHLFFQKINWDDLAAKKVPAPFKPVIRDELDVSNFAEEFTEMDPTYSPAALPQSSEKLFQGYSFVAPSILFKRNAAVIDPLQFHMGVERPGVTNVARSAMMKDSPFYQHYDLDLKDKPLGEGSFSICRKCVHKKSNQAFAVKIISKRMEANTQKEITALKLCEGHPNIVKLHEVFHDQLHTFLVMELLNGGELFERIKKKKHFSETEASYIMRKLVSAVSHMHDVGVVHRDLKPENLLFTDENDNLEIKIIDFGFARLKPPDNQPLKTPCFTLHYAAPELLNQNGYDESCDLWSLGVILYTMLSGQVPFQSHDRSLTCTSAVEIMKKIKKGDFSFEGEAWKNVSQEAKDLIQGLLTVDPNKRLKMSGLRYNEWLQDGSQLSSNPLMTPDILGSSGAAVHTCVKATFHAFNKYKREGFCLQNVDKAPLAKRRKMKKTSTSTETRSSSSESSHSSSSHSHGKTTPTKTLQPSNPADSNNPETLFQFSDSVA

[37] = target: ULK3 (human) (UniProt Q6PHR2)
Sequence of ULK3 (human) (Q6PHR2 whole entry, looked up): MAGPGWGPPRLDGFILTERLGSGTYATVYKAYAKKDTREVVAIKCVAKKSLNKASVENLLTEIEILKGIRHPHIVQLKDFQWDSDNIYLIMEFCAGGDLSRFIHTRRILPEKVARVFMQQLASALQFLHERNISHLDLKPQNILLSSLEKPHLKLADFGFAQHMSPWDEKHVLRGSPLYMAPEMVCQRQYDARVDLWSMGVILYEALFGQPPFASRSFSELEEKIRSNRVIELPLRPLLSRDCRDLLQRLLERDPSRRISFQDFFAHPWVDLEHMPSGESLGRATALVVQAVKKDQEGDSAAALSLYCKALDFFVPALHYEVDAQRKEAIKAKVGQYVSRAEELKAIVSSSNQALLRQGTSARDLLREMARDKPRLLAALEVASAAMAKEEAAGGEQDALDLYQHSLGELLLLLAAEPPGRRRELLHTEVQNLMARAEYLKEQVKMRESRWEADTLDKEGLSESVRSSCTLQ

[38] = target: TBK1 (human) (UniProt Q9UHD2)
[39] = target: EPHA7 (human) (UniProt Q15375)
[40] = target: PAK1 (human) (UniProt Q13153)

Sequence of WEE2 (human) (P0C1S8 whole entry, looked up): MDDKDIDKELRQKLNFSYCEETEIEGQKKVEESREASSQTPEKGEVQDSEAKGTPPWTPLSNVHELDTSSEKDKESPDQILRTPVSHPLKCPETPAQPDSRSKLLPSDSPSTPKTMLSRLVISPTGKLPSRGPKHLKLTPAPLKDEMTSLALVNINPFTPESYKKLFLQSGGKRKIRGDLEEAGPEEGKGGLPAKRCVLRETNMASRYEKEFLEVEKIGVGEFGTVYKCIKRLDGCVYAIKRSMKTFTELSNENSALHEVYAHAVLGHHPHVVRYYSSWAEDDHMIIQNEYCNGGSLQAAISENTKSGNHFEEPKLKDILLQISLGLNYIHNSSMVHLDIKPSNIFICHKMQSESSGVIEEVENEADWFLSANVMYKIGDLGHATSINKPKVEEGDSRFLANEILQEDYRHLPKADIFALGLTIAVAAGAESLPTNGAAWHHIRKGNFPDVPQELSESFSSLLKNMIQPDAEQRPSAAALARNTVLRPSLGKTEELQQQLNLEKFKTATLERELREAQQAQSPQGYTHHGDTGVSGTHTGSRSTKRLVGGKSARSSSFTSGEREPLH
Sequence of RPS6KA2 KD2 (human) (Q15349 whole entry, looked up): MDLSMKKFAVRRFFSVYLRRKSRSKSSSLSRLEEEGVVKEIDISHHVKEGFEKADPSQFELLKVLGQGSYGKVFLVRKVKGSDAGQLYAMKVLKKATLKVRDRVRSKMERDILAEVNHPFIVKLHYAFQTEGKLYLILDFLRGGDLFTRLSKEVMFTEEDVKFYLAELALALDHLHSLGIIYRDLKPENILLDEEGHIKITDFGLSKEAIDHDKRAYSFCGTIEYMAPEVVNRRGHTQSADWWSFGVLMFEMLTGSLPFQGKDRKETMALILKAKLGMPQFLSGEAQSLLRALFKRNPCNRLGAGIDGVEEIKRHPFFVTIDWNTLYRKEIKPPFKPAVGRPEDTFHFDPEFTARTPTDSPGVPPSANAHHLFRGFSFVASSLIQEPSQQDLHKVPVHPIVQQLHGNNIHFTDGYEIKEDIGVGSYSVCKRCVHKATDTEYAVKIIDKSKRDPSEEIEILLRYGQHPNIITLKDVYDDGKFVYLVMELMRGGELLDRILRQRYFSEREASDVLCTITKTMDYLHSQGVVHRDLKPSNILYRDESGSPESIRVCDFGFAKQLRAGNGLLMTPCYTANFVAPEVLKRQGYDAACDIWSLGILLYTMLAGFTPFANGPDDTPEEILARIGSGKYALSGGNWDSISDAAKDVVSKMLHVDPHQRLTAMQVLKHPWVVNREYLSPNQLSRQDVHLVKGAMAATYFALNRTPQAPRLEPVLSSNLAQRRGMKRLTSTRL

Structure (SMILES)	kinase still bound, per cent of control [1]	kinase still bound, per cent of control [2]	kinase still bound, per cent of control [3]	kinase still bound, per cent of control [4]	kinase still bound, per cent of control [5]	kinase still bound, per cent of control [6]	kinase still bound, per cent of control [7]	kinase still bound, per cent of control [8]	kinase still bound, per cent of control [9]	kinase still bound, per cent of control [10]	kinase still bound, per cent of control [11]	kinase still bound, per cent of control [12]	kinase still bound, per cent of control [13]	kinase still bound, per cent of control [14]	kinase still bound, per cent of control [15]	kinase still bound, per cent of control [16]	kinase still bound, per cent of control [17]	kinase still bound, per cent of control [18]	kinase still bound, per cent of control [19]	kinase still bound, per cent of control [20]	further results
O=c1cc(N2CCOCC2)oc2c(-c3cccc4c3sc3ccccc34)cccc12	97%	83%	100%	91%	18%	75%	95%	92%	98%	100%	75%	98%	95%	63%	100%	88%	91%	100%	22%	79%	kinase still bound, per cent of control [21]: 100%; kinase still bound, per cent of control [22]: 90%; kinase still bound, per cent of control [23]: 100%; kinase still bound, per cent of control [24]: 100%; kinase still bound, per cent of control [25]: 96%; kinase still bound, per cent of control [26]: 100%; kinase still bound, per cent of control [27]: 100%; kinase still bound, per cent of control [28]: 99%; kinase still bound, per cent of control [29]: 96%; kinase still bound, per cent of control [30]: 88%; kinase still bound, per cent of control [31]: 100%; kinase still bound, per cent of control [32]: 84%; kinase still bound, per cent of control [33]: 100%; kinase still bound, per cent of control [34]: 90%; kinase still bound, per cent of control [35]: 94%; kinase still bound, per cent of control [36]: 100%; kinase still bound, per cent of control [37]: 64%; kinase still bound, per cent of control [38]: 84%; kinase still bound, per cent of control [39]: 85%; kinase still bound, per cent of control [40]: 71%
O=C1NC(=O)/C(=C/c2ccc3nccc(-c4ccncc4)c3c2)S1	71%	12%	95%	30%	5%	12%	95%	31%	46%	2.4%	38%	100%	92%	32%	4%	2%	36%	46%	37%	79%	kinase still bound, per cent of control [21]: 20%; kinase still bound, per cent of control [22]: 78%; kinase still bound, per cent of control [23]: 44%; kinase still bound, per cent of control [24]: 90%; kinase still bound, per cent of control [25]: 0.25%; kinase still bound, per cent of control [26]: 95%; kinase still bound, per cent of control [27]: 80%; kinase still bound, per cent of control [28]: 6%; kinase still bound, per cent of control [29]: 91%; kinase still bound, per cent of control [30]: 84%; kinase still bound, per cent of control [31]: 36%; kinase still bound, per cent of control [32]: 41%; kinase still bound, per cent of control [33]: 88%; kinase still bound, per cent of control [34]: 40%; kinase still bound, per cent of control [35]: 58%; kinase still bound, per cent of control [36]: 100%; kinase still bound, per cent of control [37]: 39%; kinase still bound, per cent of control [38]: 29%; kinase still bound, per cent of control [39]: 88%; kinase still bound, per cent of control [40]: 86%
COc1cc2ncnc(-n3nc(-c4ccccn4)nc3N)c2cc1OC	47%	43%	100%	2.6%	5%	100%	93%	100%	1.1%	20%	22%	100%	48%	55%	44%	9.1%	0.2%	47%	2%	9.9%	kinase still bound, per cent of control [21]: 12%; kinase still bound, per cent of control [22]: 25%; kinase still bound, per cent of control [23]: 44%; kinase still bound, per cent of control [24]: 96%; kinase still bound, per cent of control [25]: 2.8%; kinase still bound, per cent of control [26]: 58%; kinase still bound, per cent of control [27]: 43%; kinase still bound, per cent of control [28]: 36%; kinase still bound, per cent of control [29]: 63%; kinase still bound, per cent of control [30]: 6.6%; kinase still bound, per cent of control [31]: 40%; kinase still bound, per cent of control [32]: 2.8%; kinase still bound, per cent of control [33]: 100%; kinase still bound, per cent of control [34]: 0.2%; kinase still bound, per cent of control [35]: 52%; kinase still bound, per cent of control [36]: 84%; kinase still bound, per cent of control [37]: 10%; kinase still bound, per cent of control [38]: 24%; kinase still bound, per cent of control [39]: 18%; kinase still bound, per cent of control [40]: 70%
